Test results from ChEMBL document CHEMBL6096732 (J Med Chem, 2025).
Active and inactive are the calls of the source. The calls are words filed in the database; no cut-off is given here.

Columns and labels:
4T1 [1] = test: Antitumor activity against mouse 4T1 cells implanted in female BALB/c mouse model assessed as tumor growth inhibition administrated orally as once daily dose via gavage for 14 days relative to control; assay type: functional; conditions: route po; time 14 day
4T1 [2] = test: Induction of DNA damage in mouse 4T1 cells assessed as upregulation of nuclear gamma-H2AX expression at 5 uM by DAPI staining based immunofluorescence analysis; assay type: functional, cell-based
4T1 [3] = test: cells; assay type: functional, cell-based; conditions: Mus musculus, 4T1, 72 h
[4] = Apparent volume of distribution in male Sprague-Dawley rat at 2 mg/kg, iv measured after 12 hrs by LC-MS/MS analysis; assay type: ADME, organism-based; conditions: in vivo, read-out: Vz
[5] = target: T1, Protein deacetylase HDAC6 (Homo sapiens) (UniProt Q9UBN7); conditions: dose 500.0 nM, time 3.0 hrs
T1 sequence (whole entry): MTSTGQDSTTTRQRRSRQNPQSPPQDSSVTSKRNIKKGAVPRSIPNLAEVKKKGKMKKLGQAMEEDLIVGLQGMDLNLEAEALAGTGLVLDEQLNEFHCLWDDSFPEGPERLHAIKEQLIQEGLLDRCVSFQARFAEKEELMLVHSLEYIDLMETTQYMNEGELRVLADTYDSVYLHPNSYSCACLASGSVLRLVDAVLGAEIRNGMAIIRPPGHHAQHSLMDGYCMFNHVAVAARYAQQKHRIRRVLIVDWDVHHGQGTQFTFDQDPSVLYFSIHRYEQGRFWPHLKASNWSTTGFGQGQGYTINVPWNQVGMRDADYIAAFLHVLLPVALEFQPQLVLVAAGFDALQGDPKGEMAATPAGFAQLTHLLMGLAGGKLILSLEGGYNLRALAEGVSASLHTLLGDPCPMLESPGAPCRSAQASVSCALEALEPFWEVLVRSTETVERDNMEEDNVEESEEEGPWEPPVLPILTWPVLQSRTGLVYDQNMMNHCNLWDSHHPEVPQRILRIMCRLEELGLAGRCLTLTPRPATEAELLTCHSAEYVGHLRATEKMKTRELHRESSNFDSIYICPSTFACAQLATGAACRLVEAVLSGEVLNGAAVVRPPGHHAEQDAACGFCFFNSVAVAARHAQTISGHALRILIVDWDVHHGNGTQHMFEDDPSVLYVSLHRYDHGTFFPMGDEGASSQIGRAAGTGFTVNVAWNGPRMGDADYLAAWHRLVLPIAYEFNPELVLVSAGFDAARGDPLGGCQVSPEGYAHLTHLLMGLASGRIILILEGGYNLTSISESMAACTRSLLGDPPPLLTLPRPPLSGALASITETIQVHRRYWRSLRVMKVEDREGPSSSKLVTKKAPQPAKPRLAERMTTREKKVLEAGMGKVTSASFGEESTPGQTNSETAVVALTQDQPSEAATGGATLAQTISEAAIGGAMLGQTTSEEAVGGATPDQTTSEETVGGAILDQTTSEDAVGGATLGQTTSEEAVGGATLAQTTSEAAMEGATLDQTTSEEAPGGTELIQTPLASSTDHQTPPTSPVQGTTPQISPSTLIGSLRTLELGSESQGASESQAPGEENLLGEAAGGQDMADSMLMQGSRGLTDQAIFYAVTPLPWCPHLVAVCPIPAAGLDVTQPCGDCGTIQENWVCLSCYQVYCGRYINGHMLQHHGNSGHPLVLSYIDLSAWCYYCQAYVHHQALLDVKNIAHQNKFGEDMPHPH

B16-F10 [6] = test: Induction of apoptosis in mouse B16-F10 cells assessed as increase in apoptotic cells at 10 uM incubated for 48 hrs by Annexin V-FITC/PI staining based flow cytometric analysis relative to control; assay type: functional
4T1 [7] = test: Induction of DNA damage in mouse 4T1 cells assessed as increase in gamma-H2AX expression at 2 uM incubated for 24 hrs by Western blot analysis; assay type: functional, cell-based
SK-OV-3 = test: cells; assay type: functional, cell-based; conditions: Homo sapiens, SK-OV-3, 72 h
Description: Antiproliferative activity against human SK-OV-3 cells assessed as inhibition of cell growth incubated for 72 hrs by MTT assay

Histone deacetylase 11 = Histone deacetylase 11 (Homo sapiens, UniProt Q96DB2); test: Inhibition of recombinant HDAC11 (unknown origin) preincubated for 1 hr followed by substrate addition and measured after 2 hrs by fluorescence based micro plate reader analysis
Chain of Histone deacetylase 11 (Q96DB2 whole entry): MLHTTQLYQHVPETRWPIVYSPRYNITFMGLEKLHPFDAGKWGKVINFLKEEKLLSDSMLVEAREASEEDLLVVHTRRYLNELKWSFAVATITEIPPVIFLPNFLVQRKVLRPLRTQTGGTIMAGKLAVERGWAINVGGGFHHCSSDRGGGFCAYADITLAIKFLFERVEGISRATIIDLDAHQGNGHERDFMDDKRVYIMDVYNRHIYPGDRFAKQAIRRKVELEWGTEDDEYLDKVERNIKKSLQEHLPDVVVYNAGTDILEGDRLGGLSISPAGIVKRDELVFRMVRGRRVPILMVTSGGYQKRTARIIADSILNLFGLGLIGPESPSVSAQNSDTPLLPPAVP

[8] = AUMC (0 to t) in male Sprague-Dawley rat at 20 mg/kg, po measured after 12 hrs by LC-MS/MS analysis; assay type: ADME, organism-based; conditions: in vivo
Mus musculus [9] = test: In vivo induction of PD-L1 degradation in male C57BL/6 mouse model implanted with mouse B16-F10 cells assessed as decrease in PD-L1 protein expression in tumor at 50 mg/kg, po co-administered with NP-19 as once daily dosage via gavage for 14 days by Western blot analysis; assay type: functional, organism-based; conditions: time 14.0 day
B16-F10 [10] = test: Cell cycle arrest in mouse B16-F10 cells assessed as accumulation of cells in G1 phase incubated for 48 hrs by RNase A/PI staining based flow cytometric analysis; assay type: functional; conditions: dose 5-20 µM
[11] = target: T2, Histone deacetylase 3 (Mus musculus) (UniProt O88895); test: In vivo inhibition of HDAC3 in male C57BL/6 mouse model implanted with mouse B16-F10 cells assessed as increase in acetylated histone H3 level in tumor at 50 mg/kg, po administered once daily via gavage for 14 days by DAPI staining based immunofluorescence analysis; assay type: functional, organism-based; conditions: time 14.0 day
T2 sequence (whole entry): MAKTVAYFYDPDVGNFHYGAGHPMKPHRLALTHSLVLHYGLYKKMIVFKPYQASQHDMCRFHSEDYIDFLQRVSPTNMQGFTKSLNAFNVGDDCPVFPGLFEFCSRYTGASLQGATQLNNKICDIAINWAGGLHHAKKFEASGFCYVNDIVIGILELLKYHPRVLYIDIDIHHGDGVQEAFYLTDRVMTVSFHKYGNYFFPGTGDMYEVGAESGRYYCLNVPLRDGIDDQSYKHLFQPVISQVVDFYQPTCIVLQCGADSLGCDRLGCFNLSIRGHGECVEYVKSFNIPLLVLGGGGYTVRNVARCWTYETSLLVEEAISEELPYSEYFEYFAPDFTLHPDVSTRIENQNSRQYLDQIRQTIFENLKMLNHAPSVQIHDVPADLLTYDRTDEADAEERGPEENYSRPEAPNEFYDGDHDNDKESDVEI

Mus musculus [12] = test: In vivo induction of PD-L1 degradation in male C57BL/6 mouse model implanted with mouse B16-F10 cells assessed as decrease in PD-L1 protein expression in tumor at 50 mg/kg, po administered once daily via gavage for 14 days by DAPI staining based immunofluorescence analysis; assay type: functional, organism-based; conditions: time 14.0 day
[13] = target: T2, Histone deacetylase 3 (Mus musculus); test: Inhibition of HDAC3 in mouse B16-F10 cells assessed as increase in histone H3 acetylation level at 5 to 20 uM incubated for 24 hrs by Western blot analysis; assay type: cell-based; conditions: dose 5-20 µM
[14] = Toxicity in male C57BL/6 mouse implanted with mouse B16-F10 cells assessed as histopathological changes in heart at 50 mg/kg, po administered once daily for 14 days by HandE staining based microscopic analysis; assay type: organism-based; conditions: in vivo, 336 h, time 14 day
Histone deacetylase 3 = Histone deacetylase 3 (Homo sapiens, UniProt O15379); conditions: dose 500.0 nM, time 3.0 hrs
Chain of Histone deacetylase 3 (O15379 whole entry): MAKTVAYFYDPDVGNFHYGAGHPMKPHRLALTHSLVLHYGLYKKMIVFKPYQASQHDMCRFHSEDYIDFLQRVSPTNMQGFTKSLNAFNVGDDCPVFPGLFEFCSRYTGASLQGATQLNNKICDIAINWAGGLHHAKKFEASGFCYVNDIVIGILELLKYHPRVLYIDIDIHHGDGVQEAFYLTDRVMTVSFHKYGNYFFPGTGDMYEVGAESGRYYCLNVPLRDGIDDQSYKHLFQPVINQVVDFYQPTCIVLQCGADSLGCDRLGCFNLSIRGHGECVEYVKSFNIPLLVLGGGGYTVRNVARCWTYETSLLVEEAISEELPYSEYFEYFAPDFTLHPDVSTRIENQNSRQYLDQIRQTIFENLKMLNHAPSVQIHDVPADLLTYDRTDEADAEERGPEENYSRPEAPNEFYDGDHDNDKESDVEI

IC50 (4T1 [3]): 8.26 µM
Vd [4]: 2.17 L/kg
inhibition [5]: 17%
IC50 (SK-OV-3): 12.8 µM
IC50 (Histone deacetylase 11): 8.87 µM
AUMCt [8]: 34704.993 hr.hr.ug/L
inhibition [11]: Active
inhibition [13]: Active
inhibition (Histone deacetylase 3): 96%
Structure (SMILES): CCCNNC(=O)c1ccc(Cn2c3ccccc3c3c(-c4ccccn4)nc4ccccc4c32)cc1
TGI (4T1 [1]): 41%
Activity (4T1 [2]): Active
Activity (B16-F10 [6]): 44.7%
Activity (4T1 [7]): Active
Activity (Mus musculus [9]): Active
Activity (B16-F10 [10]): Dose-dependent-effect
Activity (Mus musculus [12]): Active
Activity [14]: Non-toxic
